According to US11540516B2, “M-diamide compound and preparation method therefor and use thereof” (priority 2018, dated 2023):
Like-named read-outs stand apart in the source and are kept apart here. Each block holds one compound with its values, some of them ahead of it.

Assays:
Spodoptera litura = experiment: Indoor bioactivity test against Spodoptera litura (leaf dip); type: in vivo; conditions: foliar
Protocol: (§1) The leaf dip method was used to assay the insecticidal activity of compounds to strains of Spodoptera litura. Dip the leaf disc into the solution prepared with compound of this invention for 10 seconds, and dry them in a cool environment. Then place them in Petri dish with 4 discs per dish. Put the filter paper into the Petri dish to moisturize it. Put 10 of Spodoptera litura into each dish, which was repeated by 3 times. The dishes were placed in an illumination incubator and incubated at 25° C. with 14 hL: 10 hD illumination. The number of Spodoptera litura death was investigated on the 1st, 2nd and 3rd day after treatment, and the mortality was calculated.
According to the above method, compound 4, 23 and KC1 were selected and parallelly tested against Spodoptera litura to compare the insecticidal activity.

Mythimna separata = experiment: Indoor bioactivity test against Mythimna separata (leaf dip); type: in vivo; conditions: foliar, 3rd day after treatment
Description: The leaf dip method was used to assay the insecticidal activity of compounds to strains of Mythimna sepatata. Cut above ground part of fresh maize seedlings, about 10 cm. Dip the maize seedlings into the solution prepared with compound of this invention for 10 seconds and dry them in a cool environment. Then cut the dry maize seedlings into 3˜5 cm leaf sections and put 3 leaf sections into each petri dish. Put ten of 4th-instar larvae of Mythimna separatas into each dish, which was repeated by 3 times. Then the dishes were placed in an illumination incubator and incubated at 25° C. in the dark. Symptoms were investigated on the 1st, 2nd and 3rd day after treatment, and the mortality was calculated.

Chilo suppressalis = experiment: Indoor bioactivity test against Chilo suppressalis (rice stem dip); type: in vivo
Protocol: The leaf dip method was used to assay the insecticidal activity of compounds to strains of Chilo suppressalis. The rice was cultivated in a plastic pot with a diameter of 9 cm and a height of 10 cm. When the rice grew about 25 cm, the aerial part of robust and consistent rice seedlings were selectively cut. Their leaves were removed and their stems of about 8 cm were kept for use. Pour the solution prepared with compound of this invention into the Petri dish (about 40 mL) and immerse the rice stems into the solution for 10 seconds. Take rice stems out and dry them in a cool environment. Put a wet cotton ball at the bottom of finger-like glass tube and 5 rice stems in each tube. Put 10 of 3rd-instar larvae of Chilo suppressa into each tube, which was repeated by 3 times. Seal the tubes with black cotton cloth and tighten them with rubber band. The tubes were placed in a illumination incubator at 28° C. and incubated in the dark. The number of alive Chilo suppressalis and the total number were investigated 3 days after treatment. The mortality was calculated.
According to the above method, Compound 23 and KC2 were selected and parallelly tested against Chilo suppressalis.

[1] = system: Spodoptera exigua Hiibner; experiment: Indoor bioactivity test against Spodoptera exigua Hiibner (leaf dip); type: in vivo; conditions: foliar, 3rd day after treatment
Protocol: as §1, with “of Spodoptera exigua Hiibner. Dip the” for “of Spodoptera litura. Dip the”, “of Spodoptera exigua Hiibners into each” for “of Spodoptera litura into each”, “of Spodoptera exigua Hiibner death was” for “of Spodoptera litura death was”

soybean thrips = experiment: Biological activity on soybean thrips in greenhouse (foliar spray); type: in vivo; conditions: for mortality at 10 ppm / mortality at 50 ppm: Thrips, foliar; for No. of thrips 1 d / No. of thrips 6 d: foliar spray, 5% SL
Protocol: Test system: naturally occurring thrips population on soybeans planted in greenhouse. The basic number of active thripses were more than 100 thripses per trifoliate leaf. Under the same conditions, the sensitivity of the thrips population to Spinetoram (dose: 50 mg/L) is 96.55% mortality on the 6th day after treatment.
The size of the plot: 10 m^2, no repetition.
Test formulation: each compound was made into 5% SL (compound 5%+emulsifier 5%+solvent to make up 100%).
(1) Spraying time: both adult and larva thripses were in the active period. The number of spray: 1 time.
(2) Standard for water usage: when dose was in mg/kg, the upper leaves were wet and water began to drop therefrom.
(3) Survey standard: count three single leaves as one leaf. Three leaves were randomly selected and investigated for the number of adult and larva thripses on them.
[…] 2 surveys were conducted.

Plutella xylostella = experiment: Indoor bioactivity test against Plutella xylostella (leaf dip); type: in vivo; conditions: foliar; for mortality at 0.4 ppm / mortality at 1 ppm: 3rd day after treatment
Protocol: as §1, with “Plutella xylostella.” for “Spodoptera litura.”, “Plutella xylostella” for “Spodoptera litura”
According to the above method, compound 4 and KC1 were selected and parallelly tested against Plutella xylostella to compare their insecticidal activity.

[2] = 24 h, 1 d, read-out: Mortality (%) 1 d
[3] = 48 h, 2 d, read-out: Mortality (%) 2 d
[4] = 72 h, 3 d, read-out: Mortality (%) 3 d
[5] = 3rd day after treatment, read-out: mortality of Chilo suppressalis
[6] = 24 h, read-out: Mortality % 1 d
[7] = 144 h, read-out: Mortality % 6 d
[8] = 3rd day after treatment, read-out: mortality of Spodoptera litura

Compound: O=C(Nc1c(Br)cc(C(F)(C(F)(F)F)C(F)(F)F)cc1C(F)(F)F)c1cccc(N(CC2CC2)C(=O)c2ccccc2)c1F [Compound 4, N-(2-bromo-4-(perfluoropropan-2-yl)-6-(trifluoromethyl)phenyl)-3-(N-(cyclopropylmethyl)benzamido)-2-fluorobenzamide]
mortality at 10 ppm (Spodoptera litura; 3rd day after treatment): ≥ 90%
mortality at 0.4 ppm (Spodoptera litura; [2]): 20%
mortality at 1 ppm (Spodoptera litura; [2]): 73.3%
mortality at 0.4 ppm (Spodoptera litura; [3]): 26.7%
mortality at 1 ppm (Spodoptera litura; [3]): 73.3%
mortality at 0.4 ppm (Spodoptera litura; [4]): 26.7%
mortality at 1 ppm (Spodoptera litura; [4]): 73.3%
mortality at 1 ppm (Mythimna separata): ≥ 90%
mortality at 5 ppm (Chilo suppressalis; [5]): ≥ 90%
mortality at 1 ppm [1]: 90%
mortality at 10 ppm (soybean thrips; [6]): 92.4%
mortality at 50 ppm (soybean thrips; [6]): 97.7%
mortality at 10 ppm (soybean thrips; [7]): 98.3%
mortality at 50 ppm (soybean thrips; [7]): 94.8%
No. of thrips 1 d (soybean thrips; dose 10 ppm): 20
No. of thrips 6 d (soybean thrips; dose 10 ppm): 2
No. of thrips 1 d (soybean thrips; dose 50 ppm): 6
No. of thrips 6 d (soybean thrips; dose 50 ppm): 6
mortality at 0.4 ppm (Plutella xylostella): ≥ 90%
mortality at 0.04 ppm (Plutella xylostella; [2]): 30%
mortality at 0.04 ppm (Plutella xylostella; [3]): 80%
mortality at 0.04 ppm (Plutella xylostella; [4]): 100%

Compound: N#Cc1ccc(C(=O)N(CC2CC2)c2cccc(C(=O)Nc3c(Br)cc(C(F)(C(F)(F)F)C(F)(F)F)cc3C(F)(F)F)c2F)cc1 [Compound 23, N-(2-bromo-4-(perfluoropropan-2-yl)-6-(trifluoromethyl)phenyl)-3-(4-cyano-N-(cyclopropylmethyl)benzamido)-2-fluorobenzamide]
mortality at 0.4 ppm (Spodoptera litura; [8]): ≥ 90%
mortality at 0.4 ppm (Spodoptera litura; [2]): 40%
mortality at 1 ppm (Spodoptera litura; [2]): 93.3%
mortality at 0.4 ppm (Spodoptera litura; [3]): 46.7%
mortality at 1 ppm (Spodoptera litura; [3]): 100%
mortality at 0.4 ppm (Spodoptera litura; [4]): 60%
mortality at 1 ppm (Spodoptera litura; [4]): 100%
mortality at 1 ppm (Mythimna separata): ≥ 90%
mortality at 5 ppm (Chilo suppressalis; [5]): ≥ 90%
mortality at 0.4 ppm (Chilo suppressalis; 72 h, 0.4 ppm, 3d): 53.3%
mortality at 1 ppm (Chilo suppressalis; 72 h, 1 ppm, 3d): 93.3%
mortality at 2 ppm (Chilo suppressalis; 72 h, 2 ppm, 3d): 100%
mortality at 5 ppm (Chilo suppressalis; 72 h, 3d, read-out: Mortality (%, 3d) 5 ppm): 100%
mortality at 1 ppm [1]: 90%
mortality at 0.4 ppm (Plutella xylostella): ≥ 90%

melting point: 152.3 to 153.5 °C
Compound: COC(c1cc(Br)c(NC(=O)c2cccc(N(CC3CC3)C(=O)c3ccc(C#N)cc3)c2F)c(C(F)(F)F)c1)(C(F)(F)F)C(F)(F)F [Compound 24, N-(2-bromo-4-(1,1,1,3,3,3-hexafluoro-2-methoxypropan-2-yl)-6-(trifluoromethyl)phenyl)-3-(4-cyano-N-(cyclopropylmethyl)benzamido)-2-fluorobenzamide]

melting point: 73.5 to 76.1 °C
Compound: N#Cc1ccc(C(=O)N(c2cccc(C(=O)Nc3c(Br)cc(C(F)(C(F)(F)F)C(F)(F)F)cc3C(F)(F)F)c2F)C(C2CC2)C2CC2)cc1 [Compound 32, N-(2-bromo-4-(perfluoropropan-2-yl)-6-(trifluoromethyl)phenyl)-3-(4-cyano-N-(dicyclopropylmethyl)benzamido)-2-fluorobenzamide]

Compound: O=C(Nc1c(Br)cc(C(F)(C(F)(F)F)C(F)(F)F)cc1C(F)(F)F)c1cccc(N(CC2CC2)C(=O)c2ccc(C(F)(F)F)cc2)c1F [Compound 37, N-(2-bromo-4-(perfluoropropan-2-yl)-6-(trifluoromethyl)phenyl)-3-(N-(cyclopropylmethyl)-4-(trifluoromethyl)benzamido)-2-fluorobenzamide]
mortality at 0.4 ppm (Spodoptera litura; [8]): ≥ 90%
mortality at 1 ppm (Mythimna separata): ≥ 90%
mortality at 5 ppm (Chilo suppressalis; [5]): ≥ 90%
mortality at 1 ppm [1]: 90%
mortality at 1 ppm (Plutella xylostella): ≥ 90%

Compound: O=C(Nc1c(Br)cc(C(F)(C(F)(F)F)C(F)(F)F)cc1C(F)(F)F)c1cccc(N(CC2CC2)C(=O)c2ccc(Cl)cc2)c1F [Compound 41, N-(2-bromo-4-(perfluoropropan-2-yl)-6-(trifluoromethyl)phenyl)-3-(4-chloro-N-(cyclopropylmethyl)benzamido)-2-fluorobenzamide]
mortality at 0.4 ppm (Spodoptera litura; [8]): ≥ 90%
mortality at 1 ppm (Mythimna separata): ≥ 90%
mortality at 5 ppm (Chilo suppressalis; [5]): ≥ 90%
mortality at 1 ppm [1]: 90%
mortality at 0.4 ppm (Plutella xylostella): ≥ 90%

melting point: 139.3 to 140.2 °C
Compound: COC(c1cc(Br)c(NC(=O)c2cccc(N(CC3CC3)C(=O)c3ccc(Cl)cc3)c2F)c(C(F)(F)F)c1)(C(F)(F)F)C(F)(F)F [Compound 43, N-(2-bromo-4-(1,1,1,3,3,3-hexafluoro-2-methoxypropan-2-yl)-6-(trifluoromethyl)phenyl)-3-(4-chloro-N-(cyclopropylmethyl)benzamido)-2-fluorobenzamide]

Compound: O=C(Nc1c(Br)cc(C(F)(C(F)(F)F)C(F)(F)F)cc1C(F)(F)F)c1cccc(N(CC2CC2)C(=O)c2ccc(OC(F)(F)F)cc2)c1F [Compound 60, N-(2-bromo-4-(perfluoropropan-2-yl)-6-(trifluoromethyl)phenyl)-3-(N-(cyclopropylmethyl)-4-(trifluoromethoxy)benzamido)-2-fluorobenzamide]
mortality at 0.4 ppm (Spodoptera litura; [8]): ≥ 90%
mortality at 1 ppm (Mythimna separata): ≥ 90%
mortality at 10 ppm [1]: ≥ 90%
mortality at 1 ppm (Plutella xylostella): ≥ 90%

Compound: O=C(Nc1c(Br)cc(C(F)(C(F)(F)F)C(F)(F)F)cc1C(F)(F)F)c1cccc(N(CC2CC2)C(=O)c2ccc(F)cc2)c1F [Compound 62, N-(2-bromo-4-(perfluoropropan-2-yl)-6-(trifluoromethyl)phenyl)-3-(N-(cyclopropylmethyl)-4-fluorobenzamido)-2-fluorobenzamide]
mortality at 0.4 ppm (Spodoptera litura; [8]): ≥ 90%
mortality at 1 ppm (Mythimna separata): ≥ 90%
mortality at 5 ppm (Chilo suppressalis; [5]): ≥ 90%
mortality at 1 ppm [1]: 90%
mortality at 0.4 ppm (Plutella xylostella): ≥ 90%

Compound: CC(N(C(=O)c1ccc(C#N)cc1)c1cccc(C(=O)Nc2c(Br)cc(C(F)(C(F)(F)F)C(F)(F)F)cc2C(F)(F)F)c1F)C1(Cl)CC1 (stereo not shown) [Compound 75, N-(2-bromo-4-(perfluoropropan-2-yl)-6-(trifluoromethyl)phenyl)-3-(N-(1-(1-chlorocyclopropyl)ethyl)-4-cyanobenzamido)-2-fluorobenzamide]
mortality at 10 ppm (Spodoptera litura; 3rd day after treatment): ≥ 90%
mortality at 1 ppm (Mythimna separata): ≥ 90%
mortality at 10 ppm [1]: ≥ 90%
mortality at 1 ppm (Plutella xylostella): ≥ 90%

melting point: 76 to 78.8 °C
Compound: CC(C1CC1)N(C(=O)c1ccc(S(C)(=O)=O)cc1)c1cccc(C(=O)Nc2c(Br)cc(C(F)(C(F)(F)F)C(F)(F)F)cc2C(F)(F)F)c1F (stereo not shown) [Compound 77, N-(2-bromo-4-(perfluoropropan-2-yl)-6-(trifluoromethyl)phenyl)-3-(N-(1-cyclopropylethyl)-4-(methylsulfonyl)benzamido)-2-fluorobenzamide]
